Here are results for 5 compounds from patent publication US9994812B2, “Systems and method for engineering muscle tissue” (UNIVERSITY OF WASHINGTON THROUGH ITS CENTER FOR …, priority 2012, dated 2018).

What all share (type): cell-based, human
Series [1] deals with cardiomyocytes derived from healthy, and diseased hiPSC cells. The experiment in a line: Drug testing on ANP, action potential profile. To be noted: addition of Verapamil.
Series [2] relates to hESC-derived cardiomyocytes (hESC-CMs). The experiment in a line: High throughput cardiotoxicity profiling, live/dead imaging (Calcein-AM / EtBr). The following applies: doxorubicin, 24 hrs. The protocol: FIGS. 16A-16B show high throughput cardiotoxicity profiling. To test the capacity of the ANP and system to identify cardiotoxic drugs, hESC-derived cardiomyocytes (hESC-CMs) were treated with doxorubicin for 24 hrs and then imaged using the high-throughput Applied Precision DeltaVision system.

The next series concerns hES-CM monolayers. The experiment in a line: Action potential profile of monolayers on the ANP polymer substrate.
For series [3], the system named is control IMR90 cells (IMR90 hiPSC-derived cardiomyocytes). Nature of the series: Sarcomere organization on nanotextured platforms, control cells. The following applies: addition of isoproterenol. An excerpt: (§1) FIG. 34A-34D show nanotextured platforms facilitate maturation of hiPSC-derived cardiomyocytes allowing them to be used as effective disease models for drug testing against cardiomyopathies, and as in vitro cardiac disease models. […] Since nanotextures allow physiological organization of sarcomeres, it serves as a disease model to test the effect of a drug on a diseased cardiomyocyte.

The subject of series [4] is MHY7 mutated iPSC-derived CMs. Nature of the series: Sarcomere organization on nanotextured platforms, disease model. The following applies: addition of isoproterenol.
Text: as §1

Series [5] deals with hESC-derived cardiomyocyte cultures. The experiment in a line: Action potential time course traces with 1 Hz pacing on the nanotextured substrate. To be noted: 0, 20 and 40 μM, 4 seconds. As for the experimental part: Representative action potential time course traces for 4 seconds in the presence of 1 Hz pacing in the presence of carboxelone, a GAP junction inhibitor at 0 μM (FIG. 19A), 20 μM (FIG. 19B), and 40 μM (FIG. 19C) are shown.

Series [6] has as its system paced hiPSC-derived cardiomyocytes monolayer. Nature of the series: Optical mapping of conduction velocity vectors and spatial activation map. To be noted: 40 μM vs 0 μM.

Consider `COc1ccc(CCN(C)CCCC(C#N)(c2ccc(OC)c(OC)c2)C(C)C)cc1OC` (stereo not drawn) [Verapamil], for which the AP profile result in series [1] is given as “causes distortions in AP profile”.
With `COc1cccc2c1C(=O)c1c(O)c3c(c(O)c1C2=O)C[C@@](O)(C(=O)CO)C[C@@H]3O[C@H]1C[C@H](N)[C@H](O)[C@H](C)O1` [doxorubicin], the “percentage of dead hESC-CMs” value in series [2] was “statistically significant increase”.
`COc1cc(N)c(Cl)cc1C(=O)NC1CCN(CCCOc2ccc(F)cc2)CC1OC` (stereo not drawn) [cisapride]: the AP profile result in the series with hES-CM monolayers (K+ channel inhibitor on hES-CM monolayers) was “distortions in AP profile”. The “prolongation of action potential” value with hES-CM monolayers (addition of cisapride for 2 minutes) was “prolongation of action potential in a significant manner”.
`CC(C)NCC(O)c1ccc(O)c(O)c1` (stereo not drawn) [isoproterenol]: in series [3], the sarcomeric organization entry is “does not result in loss of sarcmeric organization”. In series [4], the sarcomere organization entry is reported as “results in loss of sarcomere organization”.
Turning to `CC1(C)[C@@H](OC(=O)CCC(=O)O)CC[C@]2(C)[C@H]3C(=O)C=C4[C@@H]5C[C@@](C)(C(=O)O)CC[C@]5(C)CC[C@@]4(C)[C@]3(C)CC[C@@H]12` [carboxelone], the “effect on action potential time course traces” value in series [5] is listed as “dose dependent”. Also, in series [6], the conduction velocity vectors result is listed as “decrease in conduction across the tissue” and the “spatial activation map of electrical activity” value is given as “decrease in electrical activity of the monolayer”.
